From PMC10761937, “Functional engineering of human iPSC‐derived parasympathetic neurons enhances responsiveness to gastrointestinal hormones” (FEBS Open Bio, 2023) come the findings set out here.

Experiment [1] relates to GLP1R. Kind of experiment: cAMP accumulation assay, GLP1R‐HEK293T cells. In kind it is cell-based, human. The following applies: 0, 0.01, 0.1, 1, 10, 100 nM GLP1, 0.5 mM IBMX, 37 °C, 30 min, cAMP ELISA, n = 3. As to the method:
(§1) HEK293T cells (Lenti‐X 293T Cell line; TaKaRa, Shiga, Japan) were maintained in Dulbecco's Modified Eagle Medium (DMEM; Fujifilm Wako Pure Chemical Industries, Osaka, Japan) supplemented with 10% fetal bovine serum (Biowest, Nuaillé, France), 1% non‐essential amino acids (NEAA) (Fujifilm Wako Pure Chemical Industries), and 1% penicillin–streptomycin (P/S) (Fujifilm Wako Pure Chemical Industries) and cultured in non‐coated culture plates at 37 °C and in an incubator with 5% CO2. The culture medium was replaced every 2–3 days. At 80–90% confluence, the cell colonies were digested into single cells using TrypLE Express (Thermo Fisher Scientific). The resulting cells were used for lentiviral transfection and agonist experiments.
(§2) Figure S1 presents the protocol used for this experiment. Lentiviral vectors were acquired from VectorBuilder (VectorBuilder Japan, Inc., Kanagawa, Japan). The mCherry expression vector (pLV‐Puro‐EF1A‐mCherry) was used as a control. pMD2.g plasmid (Addgene plasmid# 12259; RRID: Addgene 12259, Watertown, MA, USA) and psPAX2 plasmids (Addgene plasmid# 12260; RRID: Addgene 12260) were used as packaging plasmids. To produce lentiviruses, HEK293T cells were transduced with lentiviral vectors and packaging constructs containing 2 μg of lentivirus plasmids, 1 μg of pMD2.g, and 1 μg of psPAX2 plasmids using polyethyleneimine (PEI; Polysciences Inc., Warrington, PA, USA). […]
On the technique in general: Cyclic AMP is a second messenger, typically raised through Gs and lowered through Gi signalling.

Experiment [2] relates to NPY2R. Kind of experiment: cAMP accumulation assay, NPY2R‐HEK293T cells. In kind it is cell-based, human. The following applies: 0, 1, 10, 100 nM PYY, 0.5 mM IBMX, 10 μM FSK, 37 °C, 30 min, cAMP ELISA, n = 3. As to the method:
as §1, §2

As to “GLP1: GLP1 (4280‐v; Peptide Institute, Inc.); GLP1 (7–37) in Ca2+ imaging (HAEGTFTSDVSSYLEGQAAKEFIAWLVKGRG; Glucagon-like peptide 1(7-37); UniProt P01275 98-128, looked up)”, the cAMP production entry in experiment [1] is “increased cAMP production with increasing GLP1 concentration”.

As for “PYY: PYY (4400‐v; Peptide Institute, Inc.); PYY (3–36) in Ca2+ imaging”, in experiment [2], the “Intracellular cAMP levels (Gi function)” value is reported as “decreased in a concentration‐dependent manner”.
